Data reported in patent US8987195B2 (priority 2012, dated 2015).
Where two headings read alike, the source gives them in different places.

Assays:
HCV genotype 1b replicon = test: HCV replicon assay, genotype 1b replicon EC50; format: cell-based, Hepatitis C virus; conditions: read-out: EC50 [gt-1b]
Summary of the method: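 Cells harbouring a stable replicon are grown under G418 selection, then plated with test compound in G418-free medium for 24-48 hours. After washing and lysis, RNA or luciferase signal is measured and expressed as percent of DMSO control to give EC50.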

[1] = molecular target: HCV NS3/4A protease genotype 1b (Hepatitis C virus genotype 1b, UniProt P26663); test: HCV NS3/4A protease time-resolved fluorescence (TRF) assay, Ki against genotype 1b; format: biochemical
Summary of the method: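 Enzyme was pre-incubated 30 min with inhibitor in HEPES pH 7.5 buffer (150 mM NaCl, 15% glycerol, 10 mM DTT). Reaction ran 2.5 h at room temperature with 25 nM europium TRF peptide substrate, read at ex 340/em 615 nm. Enzyme levels: 0.2 nM (1b), 0.4 nM (A156T), 0.025 nM (3a). Ki came from four-parameter IC50 via IC50=Ki(1+[S]/KM).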

[2] = Hepatitis C virus, genotype 1b replicon
[3] = IC50 [gt-1b] (nM), NS3/4A genotype 1b, enzyme 0.2 nM
[4] = Hepatitis C virus, HCV replicon, genotype 1b, K+ salt
[5] = IC50 [gt-1b], NS3/4A protease TRF assay, genotype 1b enzyme 0.2 nM, K+ salt

Structure (SMILES)	EC50 (HCV genotype 1b replicon; [2]) [nM]	IC50 [1, 3] [nM]	other results
CCc1nc2ccc(OCCN3CCOCC3)cc2c2c1O[C@]1(CC2)C[C@H]2C(=O)N[C@]3(C(=O)NS(=O)(=O)C4(C)CC4)C[C@H]3/C=C\CCCCC[C@H](NC(=O)O[C@@H]3C[C@@H]4C[C@@H]4C3)C(=O)N2C1 [Example 516, (1R,3r,5S)-bicyclo[3.1.0]hex-3-yl {(2R,6S,12Z,13aS,14aR,16aS)-5′-ethyl-14a-{[(1-methylcyclopropyl)sulfonyl]carbamoyl}-9′-[2-(morpholin-4-yl)ethoxy]-5,16-dioxo-1,1′,2′,5,6,7,8,9,10,11,13a,14,14a,15,16,16a-hexadecahydrospiro[cyclopropa[e]pyrrolo[1,2-a][1,4]diazacyclopentadecine-2,3′-pyrano[2,3-c]quinolin]-6-yl}carbamate]	–	–	EC50 (HCV genotype 1b replicon; Hepatitis C virus, HCV replicon, genotype 1b, HCl salt): 1.09 nM; IC50 ([1]; IC50 [gt-1b], NS3/4A protease TRF assay, genotype 1b enzyme 0.2 nM, HCl salt): 0.01 nM
CC1(OC(=O)N[C@H]2CCCCC/C=C\[C@@H]3C[C@@]3(C(=O)NS(=O)(=O)C3(C)CC3)NC(=O)[C@@H]3C[C@]4(CCc5c(c(C(F)(F)F)nc6ccccc56)O4)CN3C2=O)CC1 [Example 159, 1-methylcyclopropyl [(2R,6S,12Z,13aS,14aR,16aS)-14a-{[(1-methylcyclopropyl)sulfonyl]carbamoyl}-5,16-dioxo-5′-(trifluoromethyl)-1,1′,2′,5,6,7,8,9,10,11,13a,14,14a,15,16,16a-hexadecahydrospiro[cyclopropa[e]pyrrolo[1,2-a][1,4]diazacyclopentadecine-2,3′-pyrano[2,3-c]quinolin]-6-yl]carbamate]	1.19	0.013	–
COc1ccc2nc(C(F)(F)F)c3c(c2c1)CC[C@]1(C[C@H]2C(=O)N[C@]4(C(=O)NS(=O)(=O)C5(C)CC5)C[C@H]4/C=C\CCCCC[C@H](NC(=O)OC4(C)COC4)C(=O)N2C1)O3 [Example 422, 3-methyloxetan-3-yl [(2R,6S,12Z,13aS,14aR,16aS)-9′-methoxy-14a-{[(1-methylcyclopropyl)sulfonyl]carbamoyl}-5,16-dioxo-5′-(trifluoromethyl)-1,1′,2′,5,6,7,8,9,10,11,13a,14,14a,15,16,16a-hexadecahydrospiro[cyclopropa[e]pyrrolo[1,2-a][1,4]diazacyclopentadecine-2,3′-pyrano[2,3-c]quinolin]-6-yl]carbamate]	–	–	EC50 (HCV genotype 1b replicon; [4]): 3.14 nM; IC50 [1, 5]: 0.008 nM
COc1ccc2nc(C3CC3)c3c(c2c1)[C@H](F)C[C@]1(C[C@H]2C(=O)N[C@]4(C(=O)NS(=O)(=O)C5(C)CC5)C[C@H]4/C=C\CCCCC[C@H](NC(=O)OCC(C)C)C(=O)N2C1)O3 [Example 454, 2-methylpropyl [(1′R,2S,6S,12Z,13aS,14aR,16aS)-5′-cyclopropyl-1′-fluoro-9′-methoxy-14a-{[(1-methylcyclopropyl)sulfonyl]carbamoyl}-5,16-dioxo-1,1′,2′,5,6,7,8,9,10,11,13a,14,14a,15,16,16a-hexadecahydrospiro[cyclopropa[e]pyrrolo[1,2-a][1,4]diazacyclopentadecine-2,3′-pyrano[2,3-c]quinolin]-6-yl]carbamate]	–	–	EC50 (HCV genotype 1b replicon; [4]): 1.38 nM; IC50 [1, 5]: 0.024 nM
Cc1nc2ccccc2c2c1O[C@]1(CC2O)C[C@H]2C(=O)N[C@]3(C(=O)NS(=O)(=O)C4(C)CC4)C[C@H]3/C=C\CCCCC[C@H](NC(=O)OC(C)(C)C)C(=O)N2C1 (stereo partly drawn) [Example 118, tert-butyl [(2S,6S,12Z,13aS,14aR,16aS)-1′-hydroxy-5′-methyl-14a-{[(1-methylcyclopropyl)sulfonyl]carbamoyl}-5,16-dioxo-1,1′,2′,5,6,7,8,9,10,11,13a,14,14a,15,16,16a-hexadecahydrospiro[cyclopropa[e]pyrrolo[1,2-a][1,4]diazacyclopentadecine-2,3′-pyrano[2,3-c]quinolin]-6-yl]carbamate]	–	0.027	EC50 (HCV genotype 1b replicon; genotype 1b replicon): 47.3 nM
CC(C)(C)OC(=O)N[C@H]1CCCCC/C=C\[C@@H]2C[C@@]2(C(=O)NS(=O)(=O)C2(C)CC2)NC(=O)[C@@H]2C[C@]3(CCc4c(c(C(F)(F)F)nc5ccc(OCCN6CCOCC6)cc45)O3)CN2C1=O [Example 7, tert-Butyl ((2R,6S,13aS,14aR,16aS,Z)-14a-(((1-methylcyclopropyl)sulfonyl)carbamoyl)-9′-(2-morpholinoethoxy)-5,16-dioxo-5′-(trifluoromethyl)-1′,2′,3,5,6,7,8,9,10, 11,13a,14,14a,15,16,16a-hexadecahydro-1H-spiro[cyclopropa[e]pyrrolo[1,2-a][1,4]diazacyclopentadecine-2,3′-pyrano[2,3-c]quinolin]-6-yl)carbamate]	0.433	0.02	–
COc1ccc2nc(C)c3c(c2c1)CC[C@]1(C[C@H]2C(=O)N[C@]4(C(=O)NS(=O)(=O)C5(C)CC5)C[C@H]4/C=C\CCCCC[C@H](NC(=O)OC(C(C)(C)C)C(F)(F)F)C(=O)N2C1)O3 (stereo partly drawn) [Example 367, 1,1,1-trifluoro-3,3-dimethylbutan-2-yl [(2R,6S,12Z,13aS,14aR,16aS)-9′-methoxy-5′-methyl-14a-{[(1-methylcyclopropyl)sulfonyl]carbamoyl}-5,16-dioxo-1,1′,2′,5,6,7,8,9,10,11,13a,14,14a,15,16,16a-hexadecahydrospiro[cyclopropa[e]pyrrolo[1,2-a][1,4]diazacyclopentadecine-2,3′-pyrano[2,3-c]quinolin]-6-yl]carbamate]	–	–	EC50 (HCV genotype 1b replicon; HCV replicon, genotype 1b): 3.61 nM; IC50 ([1]; IC50 [gt-1b], NS3/4A protease TRF assay, genotype 1b enzyme 0.2 nM): 0.03 nM
Cc1nc2ccccc2c2c1O[C@]1(CC2)C[C@H]2C(=O)N[C@]3(C(=O)NS(=O)(=O)C4(C)CC4)C[C@H]3/C=C\CCCCC[C@H](NC(=O)OC(C)C(F)(F)F)C(=O)N2C1 (stereo partly drawn) [Example 240, 1,1,1-trifluoropropan-2-yl [(2R,6S,12Z,13aS,14aR,16aS)-5′-methyl-14a-{[(1-methylcyclopropyl)sulfonyl]carbamoyl}-5,16-dioxo-1,1′,2′,5,6,7,8,9,10,11,13a,14,14a,15,16,16a-hexadecahydrospiro[cyclopropa[e]pyrrolo[1,2-a][1,4]diazacyclopentadecine-2,3′-pyrano[2,3-c]quinolin]-6-yl]carbamate]	–	0.01	EC50 (HCV genotype 1b replicon; genotype 1b replicon): 2.65 nM
COCCOC(=O)N[C@H]1CCCCC/C=C\[C@@H]2C[C@@]2(C(=O)NS(=O)(=O)C2(C)CC2)NC(=O)[C@@H]2C[C@]3(CCc4c(c(C)nc5ccccc45)O3)CN2C1=O [Example 128, 2-methoxyethyl [(2R,6S,12Z,13aS,14aR,16aS)-5′-methyl-14a-{[(1-methylcyclopropyl)sulfonyl]carbamoyl}-5,16-dioxo-1,1′,2′,5,6,7,8,9,10,11,13a,14,14a,15,16,16a-hexadecahydrospiro[cyclopropa[e]pyrrolo[1,2-a][1,4]diazacyclopentadecine-2,3′-pyrano[2,3-c]quinolin]-6-yl]carbamate]	2.01	0.044	–
COc1ccc2nc(C3CC3)c3c(c2c1)C(F)(F)C[C@]1(C[C@H]2C(=O)N[C@]4(C(=O)NS(=O)(=O)C5(C)CC5)C[C@H]4/C=C\CCCCC[C@H](NC(=O)OC(C)(C)C)C(=O)N2C1)O3 [Example 19, tert-Butyl (2S,6S,13aS,14aR,16aS,Z)-5′-cyclopropyl-1′,1′-difluoro-9′-methoxy-14a-(1-methylcyclopropylsulfonylcarbamoyl)-5,16-dioxo-1′,2′,3,5,6,7,8,9,10,11,13a,14,14a, 15,16,16a-hexadecahydro-1H-spiro[cyclopropa[e]pyrrolo[1,2-a][1,4]diazacyclopentadecine-2,3′-pyrano[2,3-c]quinoline]-6-ylcarbamate]	–	–	EC50 (HCV genotype 1b replicon; Hepatitis C virus, genotype 1b replicon, K+ salt): 1.98 nM; IC50 ([1]; IC50 [gt-1b] (nM), NS3/4A genotype 1b, enzyme 0.2 nM, K+ salt): 0.018 nM
Cc1nc2ccccc2c2c1O[C@]1(CC2)C[C@H]2C(=O)N[C@]3(C(=O)NS(=O)(=O)C4(C)CC4)C[C@H]3/C=C\CCCCC[C@H](NC(=O)OCCF)C(=O)N2C1 [Example 127, 2-fluoroethyl [(2R,6S,12Z,13aS,14aR,16aS)-5′-methyl-14a-{[(1-methylcyclopropyl)sulfonyl]carbamoyl}-5,16-dioxo-1,1′,2′,5,6,7,8,9,10,11,13a,14,14a,15,16,16a-hexadecahydrospiro[cyclopropa[e]pyrrolo[1,2-a][1,4]diazacyclopentadecine-2,3′-pyrano[2,3-c]quinolin]-6-yl]carbamate]	0.394	0.031	–
Cc1nc2ccc(F)cc2c2c1O[C@]1(CC2)C[C@H]2C(=O)N[C@]3(C(=O)NS(=O)(=O)C4(C)CC4)C[C@H]3/C=C\CCCCC[C@H](NC(=O)OC(C)(C)C)C(=O)N2C1 [Example 43, tert-Butyl (1aR,3aS,3′R,9S,16aS,Z)-9′-fluoro-5′-methyl-1a-(1-methylcyclopropylsulfonylcarbamoyl)-3,8-dioxo-1a,1′,2,2′,3,3a,4,6,8,9,10,11,12,13,14,16a-hexadecahydro-1H-spiro[cyclopropa[e]pyrrolo[1,2-a][1,4]diazacyclopentadecine-5,3′-pyrano[2,3-c]quinoline]-9-ylcarbamate]	1.25	0.005	–
